Source: patent publication US20050085413A1, “Dimeric pharmaceutical compounds and their use” (priority 2001, published 2005)

How the values were obtained:
[1] = tested on: Enterococcus faecalis ATCC 29212; assay: Kirby-Bauer disk test, zones of inhibition; format: cell-based; settings: 30 μg/disk; for zone of inhibition at 30 µg/disc: Enterococcus faecalis, ATCC29212, read-out: diameter of zone of inhibition, Enterococcus faecalis ATCC 29212
Procedure: (§1) Antibiotic activities were determined using a standard Kirby-Bauer* test and are reported as diameters (in mm) of zones of inhibition for test strains. All compounds were spotted at 30 μg/disk.

[2] = tested on: Staphylococcus aureus ATCC 29213; assay: Kirby-Bauer disk test, zones of inhibition; format: cell-based; settings: 30 μg/disk; for zone of inhibition at 30 µg/disc: Staphylococcus aureus, ATCC29213, read-out: diameter of zone of inhibition, Staphylococcus aureus ATCC 29213
Procedure: as §1

[3] = tested on: Escherichia coli ATTCC 25922; assay: Kirby-Bauer disk test, zones of inhibition; format: cell-based; settings: 30 μg/disk; for zone of inhibition at 30 µg/disc: Escherichia coli, ATTCC25922, read-out: diameter of zone of inhibition, Escherichia coli ATTCC 25922
Procedure: as §1

[4] = tested on: Pseudomonas aeuruginosa ATCC 27853; assay: Kirby-Bauer disk test, zones of inhibition; format: cell-based; settings: 30 μg/disk; for zone of inhibition at 30 µg/disc: Pseudomonas, ATCC27853, read-out: diameter of zone of inhibition, Pseudomonas aeuruginosa ATCC 27853
Procedure: as §1

[5] = in vivo
Procedure: Rodents were anaesthetised with Ketamine/Domitor mixture according to standard procedures and dosed with compound of interest by the intra-nasal route at a dose volume of approximately 3.0 ml/kg. The rodent is held in the vertical position during dosing of 30 μL per nostril. At different time points, for example, 2, 8, 24, 48 and 168 hours post-dose, levels of compound in the lung tissue are assessed by analytical methods. Any analytical method suitable for detection of this type of compound may be used. The time at which levels of compound fall below the sensitivity of the analytical techniques identified will determine the residency time of the compound in lung tissue.

Row | Compound | zone of inhibition at 30 µg/disc [1] [mm] | zone of inhibition at 30 µg/disc [2] [mm] | zone of inhibition at 30 µg/disc [3] [mm] | zone of inhibition at 30 µg/disc [4] [mm] | nmole retained per gram of mouse lung after 7 days [5] [nmole per gram] | diameter of zone of inhibition, Enterococcus faecalis ATCC 29212 [1] [mm] | diameter of zone of inhibition, Staphylococcus aureus ATCC 29213 [2] [mm] | diameter of zone of inhibition, Escherichia coli ATTCC 25922 [3] [mm] | diameter of zone of inhibition, Pseudomonas aeuruginosa ATCC 27853 [4] [mm]
1 | NCC[C@H](O)C(=O)N[C@@H]1C[C@H](N)[C@@H](O[C@H]2O[C@H](CN)[C@@H](O)[C@H](O)[C@H]2O)[C@H](O)[C@H]1O[C@H]1O[C@H](CO)[C@@H](O)[C@H](N)[C@H]1O [Amikacin, reference compound] | 6.7 | 18.2 | 18.5 | 18.4 | – | – | – | – | –
2 | NCC1OC(OC2C(N)CC(N)C(OC3OC(COC(=O)NCCCCCCCCCCCCNC(=O)OCC4OC(OC5C(N)CC(N)C(OC6OC(CN)C(O)CC6N)C5O)C(O)C(N)C4O)C(O)C(N)C3O)C2O)C(N)CC1O (stereo not shown) [Compound 1] | 6 | 8.9 | 7 | 6.3 | – | – | – | – | –
3 | NCC1OC(OC2C(N)CC(N)C(OC3OC(CN)C(O)C(N)C3O)C2O)C(N)CC1O (stereo not shown) [Compound 2] | 6.3 | 18.2 | 6.3 | 12.8 | – | – | – | – | –
4 | NCC1OC(OC2C(N)CC(N)C(OC3OC(COC(=O)Nc4ccc(Cc5ccc(NC(=O)OCC6OC(OC7C(N)CC(N)C(OC8OC(CN)C(O)CC8N)C7O)C(O)C(N)C6O)cc5)cc4)C(O)C(N)C3O)C2O)C(N)CC1O (stereo not shown) [Compound 4] | 6 | 9.3 | 7.9 | 9.2 | – | – | – | – | –
5 | NCC1OC(OC2C(N)CC(N)C(OC3OC(CN4CCNCC4)C(O)C(N)C3O)C2O)C(N)CC1O (stereo not shown) [Compound 5] | 7.4 | 18.6 | 10.5 | 13.8 | 0.8 | – | – | – | –
6 | NCC1OC(OC2C(N)CC(N)C(OC3OC(CN4CCN(C(=O)CCCCCCCCCCCCCC(=O)N5CCCN(CC6OC(OC7C(N)CC(N)C(OC8OC(CN)C(O)CC8N)C7O)C(O)C(N)C6O)C5)CC4)C(O)C(N)C3O)C2O)C(N)CC1O (stereo not shown) [Compound 7] | 6.2 | – | 6.5 | 8.9 | – | – | – | – | –
7 | NCC1OC(OC2C(N)CC(N)C(OC3OC(CN4CCN(C(=O)c5ccccc5-c5ccccc5C(=O)N5CCN(CC6OC(OC7C(N)CC(N)C(OC8OC(CN)C(O)CC8N)C7O)C(O)C(N)C6O)CC5)CC4)C(O)C(N)C3O)C2O)C(N)CC1O (stereo not shown) [Compound 8] | 6.2 | – | 11.4 | 12.1 | 4.6 | – | – | – | –
8 | NCC1OC(OC2C(N)CC(N)C(OC3OC(CNC(=O)Nc4ccc(Cc5ccc(NC(=O)NCC6OC(OC7C(N)CC(N)C(OC8OC(CN)C(O)CC8N)C7O)C(O)C(N)C6O)cc5)cc4)C(O)C(N)C3O)C2O)C(N)CC1O (stereo not shown) [Compound 13] | 6.5 | 8.6 | 7.1 | 8.9 | – | – | – | – | –
9 | NCC1OC(OC2C(N)CC(N)C(OC3OC(CN4CCN(C(=O)Nc5ccc(Cc6ccc(NC(=O)N7CCN(CC8OC(OC9C(N)CC(N)C(OC%10OC(CN)C(O)CC%10N)C9O)C(O)C(N)C8O)CC7)cc6)cc5)CC4)C(O)C(N)C3O)C2O)C(N)CC1O (stereo not shown) [Compound 15] | 6.2 | – | 7.7 | 9 | – | – | – | – | –
10 | Cc1cc(C)c(NC(=O)N2CCN(CC3OC(OC4C(N)CC(N)C(OC5OC(CN)C(O)CC5N)C4O)C(O)C(N)C3O)CC2)c(C)c1NC(=O)N1CCN(CC2OC(OC3C(N)CC(N)C(OC4OC(CN)C(O)CC4N)C3O)C(O)C(N)C2O)CC1 (stereo not shown) [Compound 16] | 6.2 | – | 6.5 | 10.1 | 2.8 | – | – | – | –
11 | NCC1OC(OC2C(N)CC(N)C(OC3OC(CN4CCN(Cc5cccc(CN6CCN(CC7OC(OC8C(N)CC(N)C(OC9OC(CN)C(O)CC9N)C8O)C(O)C(N)C7O)CC6)c5)CC4)C(O)C(N)C3O)C2O)C(N)CC1O (stereo not shown) [Compound 17] | 6.2 | – | 6.5 | 8.5 | – | – | – | – | –
12 | NC1CC(O)C(CNC(=O)NCCCCCCCCCCCCNC(=O)NCC2OC(OC3C(N)CC(N)C(OC4OC(CO)C(O)C(N)C4O)C3O)C(N)CC2O)OC1OC1C(N)CC(N)C(OC2OC(CO)C(O)C(N)C2O)C1O (stereo not shown) [Compound 18] | 6.2 | – | 7.6 | 10.4 | 6.6 | – | – | – | –
13 | NCC1OC(OC2C(N)CC(N)C(OC3OC(CN4CCN(C(=O)Nc5ccc(NC(=O)N6CCN(CC7OC(OC8C(N)CC(N)C(OC9OC(CN)C(O)CC9N)C8O)C(O)C(N)C7O)CC6)cc5)CC4)C(O)C(N)C3O)C2O)C(N)CC1O (stereo not shown) [Compound 19] | 6.2 | – | 12.1 | 12.8 | – | – | – | – | –
14 | NCC1OC(OC2C(N)CC(N)C(OC3OC(CN4CCN(CCCCCCCCCCCCN5CCN(CC6OC(OC7C(N)CC(N)C(OC8OC(CN)C(O)CC8N)C7O)C(O)C(N)C6O)CC5)CC4)C(O)C(N)C3O)C2O)C(N)CC1O (stereo not shown) [Compound 20] | 6.2 | – | 7.8 | 7.5 | – | – | – | – | –
15 | NCC1OC(OC2C(N)CC(N)C(OC3OC(CNCCCCNC(=O)Nc4ccc(Cc5ccc(NC(=O)NCCCCNCC6OC(OC7C(N)CC(N)C(OC8OC(CN)C(O)CC8N)C7O)C(O)C(N)C6O)cc5)cc4)C(O)C(N)C3O)C2O)C(N)CC1O (stereo not shown) [Compound 22] | – | – | – | 6 | – | – | – | – | –
16 | NCC1OC(OC2C(N)CC(N)C(OC3OC(CN4CCN(C(=O)CCC(=O)N5CCN(CC6OC(OC7C(N)CC(N)C(OC8OC(CN)C(O)CC8N)C7O)C(O)C(N)C6O)CC5)CC4)C(O)C(N)C3O)C2O)C(N)CC1O (stereo not shown) [Compound 25] | – | – | – | 6 | – | – | – | – | –
17 | NC[C@H]1O[C@H](O[C@H]2[C@H](O)[C@@H](O[C@H]3O[C@H](CO)[C@@H](O)[C@H](N)[C@H]3O)[C@H](N)C[C@@H]2N)[C@H](O)[C@@H](O)[C@@H]1O [Kanamycin A, reference compound] | – | – | – | – | – | 6.7 | 19.1 | 18.2 | 6.2
18 | NC[C@H]1O[C@H](O[C@H]2[C@H](O)[C@@H](O[C@H]3O[C@H](CO)[C@@H](O)[C@H](N)[C@H]3O)[C@H](N)C[C@@H]2N)[C@H](N)C[C@@H]1O [Tobramycin, reference compound] | 15.7 | 26.7 | 18.4 | 24.9 | 2.1 | – | – | – | –
19 | Neomycin [reference compound] | – | – | – | – | – | 6.7 | 16.8 | 14.4 | 7.1
